Drawing on BindingDB's records for doi:10.1016/S0960-894X(00)80062-1 (1994), this text covers IC50 for 1 compound.

The target of this test is Squalene synthase (Candida albicans). As to the kind of experiment: In vitro inhibitory activity against Candida albicans squalene synthase.

With `C=C(CCC12CCC(C(=O)O)(O1)C(O)(C(=O)O)C(C(=O)O)O2)[C@@H](OC(C)=O)[C@H](C)Cc1ccccc1` (stereo partly drawn) [1-((4S,5R)-4-Acetoxy-5-methyl-3-methylene-6-phenyl-hexyl)-4-hydroxy-2,8-dioxa-bicyclo[3.2.1]octane-3,4,5-tricarboxylic acid], the half-inhibitory concentration (IC50) was 430 nM. This lies in the sub-micromolar range.

In general, IC50 refers to the concentration at which inhibition is half-maximal. A low value points to higher potency.
